This passage reports GI50 and TGI results from PubChem BioAssay (NCI).

Several values for one entry are separate records, joined by “and”; a condition that tells them apart may be missing. Identical values can stand only once.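 Results reflect a 48-hour exposure of cells in 96-well plates to compound at five concentrations. Abbreviation: GI50, concentration required for 50% inhibition of growth. TGI: total growth inhibition.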 Bounds are passed on as bounds.

In the first experiment the test system is SW-620 colon. As to the kind of experiment: inhibition of tumour cell growth, NCI panel, 48 h.
On to `CCc1c(Oc2ccc(C(C)=O)cc2)c2ccccc2[nH]c1=O`, for which the GI50 was 22.2 µM and the TGI was 67.4 µM.
For `Cn1c(N2NC(=O)C(N=Nc3ccc(S(N)(=O)=O)cc3)C2=O)nc(-c2ccco2)c(C#N)c1=O` (stereo unspecified), in that order: 9.23 µM and 28.6 µM.
For `Cc1ccc(CS/C(=C\c2ccc([N+](=O)[O-])cc2)C(=O)c2ccc(F)cc2)cc1`, in that order: 1.67 µM and 3.71 µM.
On to `O=C(O)Cn1ccc(=O)c2ccc([N+](=O)[O-])cc21`, for which the TGI was above 100 µM.
As to `O=C(c1ccco1)c1nc2ccc(C(F)(F)F)cc2[n+]([O-])c1C(F)(F)F`, the GI50 is above 100 µM and the TGI was above 100 µM.
`C=C(CN1CCc2ccccc2C1)c1ccc(C(=O)Nc2cnccn2)cc1`: the GI50 is 42.3 µM and the TGI is above 100 µM.
`CCCCC/C(C=C(C#N)C#N)=C/c1ccccc1`: the GI50 was 3.12 µM and the TGI was found to be 10.9 µM.
With `CSc1cc(N=Nc2nc3ccccc3s2)c2ccccc2c1O`, the GI50 was 13.3 µM and the TGI turned out to be 34.8 µM.
For the molecule `CCOC(=O)/C=C(/C(=O)OCC)n1cc(Cl)c(=O)n(CC(=O)OCC)c1=O`, the GI50 was 3.04 µM; the TGI was 4.45 µM and 12.9 µM.
In the case of `O=C1NNC=Nc2ccc(cc2)S(=O)(=O)c2ccc(cc2)N=CNNC1=O`, the TGI was above 100 µM.
On to `COc1cc2c3c(n(C)c(=O)c2cc1OC)-c1cc2c(cc1/C3=C\CCCN1C(=O)c3ccccc3C1=O)OCO2`, for which the GI50 is 13.5 µM and the TGI is above 40 µM.
For `CSc1ccc(C2=NN(C(C)=O)C(c3cc(C)cs3)C2)cc1` (stereo unspecified), in that order: 38.2 µM and above 100 µM.
For `Cn1cc(-c2cnc3ccc(NC(=O)Nc4ccc(F)c(Br)c4)cc3n2)cn1` the same measures were 1.85 µM and 3.83 µM.
The molecule `O=C1CNCCCN2CCN(CCCNCC(=O)Nc3ccc(cc3)S(=O)(=O)c3ccc(cc3)NC(=O)CNCCCN3CCN(CCCNCC(=O)Nc4ccc(cc4)S(=O)(=O)c4ccc(cc4)N1)CC3)CC2` came in with a TGI above 100 µM.
Regarding `N#Cc1ccc(C#Cc2ccccc2C#CCCCCO)cc1`, the GI50 was 17.4 µM and the TGI amounted to 35 µM.
For `Cc1ccc(-c2c3c([nH]c(=O)c2C#N)-c2cc(F)ccc2OC3)cc1` the same measures were above 100 µM and above 100 µM.

The test system of the next experiment is RPMI-8226 leukemia. The experiment is described as follows: inhibition of tumour cell growth, NCI panel, 48 h.
Take `CCc1c(Oc2ccc(C(C)=O)cc2)c2ccccc2[nH]c1=O`: the GI50 is 3.65 µM and the TGI was above 42.5 µM.
For `Cn1c(N2NC(=O)C(N=Nc3ccc(S(N)(=O)=O)cc3)C2=O)nc(-c2ccco2)c(C#N)c1=O` (stereo unspecified), in that order: 4.98 µM and 30.2 µM.
For `Cc1ccc(CS/C(=C\c2ccc([N+](=O)[O-])cc2)C(=O)c2ccc(F)cc2)cc1` the same measures were 0.458 µM and 3.51 µM.
For `O=C(c1ccco1)c1nc2ccc(C(F)(F)F)cc2[n+]([O-])c1C(F)(F)F`, in that order: 20.3 µM and 93 µM.
Take `C=C(CN1CCc2ccccc2C1)c1ccc(C(=O)Nc2cnccn2)cc1`: the GI50 was 3.35 µM and the TGI turned out to be 10.3 µM.
For `CCCCC/C(C=C(C#N)C#N)=C/c1ccccc1` the same measures were 1.92 µM and 5.78 µM.
For `O=C(CI)NC1Oc2ccccc2-c2oc(=O)c(-c3ccccc3)cc21` (stereo unspecified), in that order: 2.08 µM and 4.79 µM.
For the molecule `CSc1cc(N=Nc2nc3ccccc3s2)c2ccccc2c1O`, the GI50 was 2.51 µM and the TGI came out at 25.6 µM.
Turning to `CCOC(=O)/C=C(/C(=O)OCC)n1cc(Cl)c(=O)n(CC(=O)OCC)c1=O`, the TGI worked out at 5.73 µM.
For the molecule `CSc1ccc(C2=NN(C(C)=O)C(c3cc(C)cs3)C2)cc1` (stereo unspecified), the GI50 was 15.3 µM and the TGI was above 100 µM.
For `Cn1cc(-c2cnc3ccc(NC(=O)Nc4ccc(F)c(Br)c4)cc3n2)cn1` the same measures were 1.25 µM and 3.82 µM.
For the molecule `O=C1CNCCCN2CCN(CCCNCC(=O)Nc3ccc(cc3)S(=O)(=O)c3ccc(cc3)NC(=O)CNCCCN3CCN(CCCNCC(=O)Nc4ccc(cc4)S(=O)(=O)c4ccc(cc4)N1)CC3)CC2`, the TGI amounted to 64 µM.
For `N#Cc1ccc(C#Cc2ccccc2C#CCCCCO)cc1`, the GI50 is 20.6 µM and the TGI stood at 44.1 µM.
For `Cc1ccc(-c2c3c([nH]c(=O)c2C#N)-c2cc(F)ccc2OC3)cc1` the same measures were 28.3 µM and above 100 µM.

The next experiment has as its system SR leukemia. As to the kind of experiment: inhibition of tumour cell growth, NCI panel, 48 h.
Consider `CCc1c(Oc2ccc(C(C)=O)cc2)c2ccccc2[nH]c1=O`, for which the GI50 was 9.09 µM and the TGI was above 100 µM.
`Cn1c(N2NC(=O)C(N=Nc3ccc(S(N)(=O)=O)cc3)C2=O)nc(-c2ccco2)c(C#N)c1=O` (stereo unspecified): the GI50 is 2.89 µM and the TGI stood at 28.4 µM.
For `O=C(O)Cn1ccc(=O)c2ccc([N+](=O)[O-])cc21`, the TGI was above 100 µM.
Consider `O=C(c1ccco1)c1nc2ccc(C(F)(F)F)cc2[n+]([O-])c1C(F)(F)F`, for which the GI50 was 20.8 µM and the TGI is 57.4 µM.
`O=C(CI)NC1Oc2ccccc2-c2oc(=O)c(-c3ccccc3)cc21` (stereo unspecified): the GI50 was 0.357 µM and the TGI is above 100 µM.
For `O=C1c2cccc(NCCN=Cc3cc(O)ccc3O)c2C(=O)c2c(NCCN=Cc3cc(O)ccc3O)cccc21`, in that order: 0.601 µM and 3.1 µM.
Turning to `CSc1cc(N=Nc2nc3ccccc3s2)c2ccccc2c1O`, the GI50 was 0.973 µM and the TGI amounted to 19.4 µM.
As for `CCOC(=O)/C=C(/C(=O)OCC)n1cc(Cl)c(=O)n(CC(=O)OCC)c1=O`, the TGI is 25 µM.
Take `COc1cc(/C=C/c2cc(/C=C/c3ccc(O)c(OC)c3)n(-c3ccccc3)n2)ccc1O`: the GI50 was 0.0353 µM and the TGI is above 100 µM.
For `Cc1ccc(-c2c3c([nH]c(=O)c2C#N)-c2cc(F)ccc2OC3)cc1` the same measures were above 100 µM and above 100 µM.

For the next experiment, the system named is OVCAR-5 ovarian. The experiment is described as follows: inhibition of tumour cell growth, NCI panel, 48 h.
`CCc1c(Oc2ccc(C(C)=O)cc2)c2ccccc2[nH]c1=O`: the GI50 is 31.8 µM and the TGI was above 100 µM.
For `Cn1c(N2NC(=O)C(N=Nc3ccc(S(N)(=O)=O)cc3)C2=O)nc(-c2ccco2)c(C#N)c1=O` (stereo unspecified), the GI50 is above 50 µM and the TGI is above 50 µM.
For the molecule `Cc1ccc(CS/C(=C\c2ccc([N+](=O)[O-])cc2)C(=O)c2ccc(F)cc2)cc1`, the GI50 is 2.6 µM and the TGI was 9.01 µM.
Regarding `O=C(O)Cn1ccc(=O)c2ccc([N+](=O)[O-])cc21`, the TGI is above 100 µM.
For the molecule `O=C(c1ccco1)c1nc2ccc(C(F)(F)F)cc2[n+]([O-])c1C(F)(F)F`, the GI50 is above 100 µM and the TGI is above 100 µM.
Take `C=C(CN1CCc2ccccc2C1)c1ccc(C(=O)Nc2cnccn2)cc1`: the GI50 was above 100 µM and the TGI is above 100 µM.
Turning to `CCCCC/C(C=C(C#N)C#N)=C/c1ccccc1`, the GI50 was 4.11 µM and the TGI is 10.7 µM.
For `O=C1c2cccc(NCCN=Cc3cc(O)ccc3O)c2C(=O)c2c(NCCN=Cc3cc(O)ccc3O)cccc21`, in that order: 2.12 µM and 5.14 µM.
For `CSc1cc(N=Nc2nc3ccccc3s2)c2ccccc2c1O`, in that order: 16.1 µM and 28.7 µM.
On to `CCOC(=O)/C=C(/C(=O)OCC)n1cc(Cl)c(=O)n(CC(=O)OCC)c1=O`, for which the GI50 is 36.6 µM.
`O=C1NNC=Nc2ccc(cc2)S(=O)(=O)c2ccc(cc2)N=CNNC1=O` returned a TGI above 100 µM.
Consider `COc1cc2c3c(n(C)c(=O)c2cc1OC)-c1cc2c(cc1/C3=C\CCCN1C(=O)c3ccccc3C1=O)OCO2`, for which the GI50 is above 40 µM and the TGI is above 40 µM.
Take `CSc1ccc(C2=NN(C(C)=O)C(c3cc(C)cs3)C2)cc1` (stereo unspecified): the GI50 was 44.4 µM and the TGI was above 100 µM.
For `Cn1cc(-c2cnc3ccc(NC(=O)Nc4ccc(F)c(Br)c4)cc3n2)cn1` the same measures were 1.94 µM and 4.53 µM.
For `COc1cc(/C=C/c2cc(/C=C/c3ccc(O)c(OC)c3)n(-c3ccccc3)n2)ccc1O` the same measures were 1.27 µM and 4.51 µM.
For `O=C1CNCCCN2CCN(CCCNCC(=O)Nc3ccc(cc3)S(=O)(=O)c3ccc(cc3)NC(=O)CNCCCN3CCN(CCCNCC(=O)Nc4ccc(cc4)S(=O)(=O)c4ccc(cc4)N1)CC3)CC2`, the TGI is above 77.2 µM.
`N#Cc1ccc(C#Cc2ccccc2C#CCCCCO)cc1`: the GI50 was 15.1 µM and the TGI worked out at 28.4 µM.
For `Cc1ccc(-c2c3c([nH]c(=O)c2C#N)-c2cc(F)ccc2OC3)cc1`, in that order: above 100 µM and above 100 µM.

A further experiment concerns HCT-15 colon. The experiment is described as follows: inhibition of tumour cell growth, NCI panel, 48 h.
In the case of `CCc1c(Oc2ccc(C(C)=O)cc2)c2ccccc2[nH]c1=O`, the GI50 is 16.4 µM and the TGI was found to be 96.8 µM.
For `Cn1c(N2NC(=O)C(N=Nc3ccc(S(N)(=O)=O)cc3)C2=O)nc(-c2ccco2)c(C#N)c1=O` (stereo unspecified) the same measures were 8.44 µM and 22.1 µM.
In turn, `O=C(O)Cn1ccc(=O)c2ccc([N+](=O)[O-])cc21` yielded a TGI above 100 µM.
Take `O=C(c1ccco1)c1nc2ccc(C(F)(F)F)cc2[n+]([O-])c1C(F)(F)F`: the GI50 is above 100 µM and the TGI was above 100 µM.
For the molecule `C=C(CN1CCc2ccccc2C1)c1ccc(C(=O)Nc2cnccn2)cc1`, the GI50 was 28.8 µM and the TGI is above 100 µM.
Regarding `CCCCC/C(C=C(C#N)C#N)=C/c1ccccc1`, the GI50 is 5.13 µM and the TGI amounted to 27.5 µM.
For `O=C1c2cccc(NCCN=Cc3cc(O)ccc3O)c2C(=O)c2c(NCCN=Cc3cc(O)ccc3O)cccc21`, in that order: 2.84 µM and 10.5 µM.
For `CSc1cc(N=Nc2nc3ccccc3s2)c2ccccc2c1O`, in that order: 8.31 µM and 20.2 µM.
Consider `CCOC(=O)/C=C(/C(=O)OCC)n1cc(Cl)c(=O)n(CC(=O)OCC)c1=O`, for which the GI50 is 19 µM; the TGI is 10.5 µM and 40.1 µM.
Regarding `O=C1NNC=Nc2ccc(cc2)S(=O)(=O)c2ccc(cc2)N=CNNC1=O`, the TGI is above 100 µM.
On to `COc1cc2c3c(n(C)c(=O)c2cc1OC)-c1cc2c(cc1/C3=C\CCCN1C(=O)c3ccccc3C1=O)OCO2`, for which the GI50 is above 40 µM and the TGI was above 40 µM.
Regarding `CSc1ccc(C2=NN(C(C)=O)C(c3cc(C)cs3)C2)cc1` (stereo unspecified), the GI50 was 24.6 µM and the TGI was above 100 µM.
For the molecule `Cn1cc(-c2cnc3ccc(NC(=O)Nc4ccc(F)c(Br)c4)cc3n2)cn1`, the GI50 is 1.92 µM and the TGI was 4.45 µM.
With `O=C1CNCCCN2CCN(CCCNCC(=O)Nc3ccc(cc3)S(=O)(=O)c3ccc(cc3)NC(=O)CNCCCN3CCN(CCCNCC(=O)Nc4ccc(cc4)S(=O)(=O)c4ccc(cc4)N1)CC3)CC2`, the TGI was above 54.8 µM.
On to `N#Cc1ccc(C#Cc2ccccc2C#CCCCCO)cc1`, for which the GI50 is 15.6 µM and the TGI came out at 29 µM.
For the molecule `Cc1ccc(-c2c3c([nH]c(=O)c2C#N)-c2cc(F)ccc2OC3)cc1`, the GI50 is 91 µM and the TGI was above 100 µM.

The subject of another experiment is MCF7 breast. As to the kind of experiment: inhibition of tumour cell growth, NCI panel, 48 h.
For the molecule `CCc1c(Oc2ccc(C(C)=O)cc2)c2ccccc2[nH]c1=O`, the GI50 was 10.5 µM and the TGI is above 71.7 µM.
For `Cn1c(N2NC(=O)C(N=Nc3ccc(S(N)(=O)=O)cc3)C2=O)nc(-c2ccco2)c(C#N)c1=O` (stereo unspecified), in that order: 14.7 µM and above 50 µM.
Regarding `O=C(O)Cn1ccc(=O)c2ccc([N+](=O)[O-])cc21`, the TGI was above 100 µM.
As to `O=C(c1ccco1)c1nc2ccc(C(F)(F)F)cc2[n+]([O-])c1C(F)(F)F`, the GI50 was 41.6 µM and the TGI is above 100 µM.
